Assay results taken from patent US7998989B2, “2-Imino-1,3-thiazoline-based compounds and T-type calcium channel inhibitors containing the same” (Korea Institute of Science and Technology, priority 2007, dated 2011).
Read-outs that look alike come from different tables or passages of the source.

Experiments:
[1] = molecular target: T1, α1G T-type calcium channel (Homo sapiens, UniProt O43497); test: Assay for % inhibiting activity against T-type calcium channel using FDSS6000 (fluo-3 calcium imaging, KCl activation); type: cell-based
T1 construct: host or cells: HEK293
T1 sequence (O43497 whole entry): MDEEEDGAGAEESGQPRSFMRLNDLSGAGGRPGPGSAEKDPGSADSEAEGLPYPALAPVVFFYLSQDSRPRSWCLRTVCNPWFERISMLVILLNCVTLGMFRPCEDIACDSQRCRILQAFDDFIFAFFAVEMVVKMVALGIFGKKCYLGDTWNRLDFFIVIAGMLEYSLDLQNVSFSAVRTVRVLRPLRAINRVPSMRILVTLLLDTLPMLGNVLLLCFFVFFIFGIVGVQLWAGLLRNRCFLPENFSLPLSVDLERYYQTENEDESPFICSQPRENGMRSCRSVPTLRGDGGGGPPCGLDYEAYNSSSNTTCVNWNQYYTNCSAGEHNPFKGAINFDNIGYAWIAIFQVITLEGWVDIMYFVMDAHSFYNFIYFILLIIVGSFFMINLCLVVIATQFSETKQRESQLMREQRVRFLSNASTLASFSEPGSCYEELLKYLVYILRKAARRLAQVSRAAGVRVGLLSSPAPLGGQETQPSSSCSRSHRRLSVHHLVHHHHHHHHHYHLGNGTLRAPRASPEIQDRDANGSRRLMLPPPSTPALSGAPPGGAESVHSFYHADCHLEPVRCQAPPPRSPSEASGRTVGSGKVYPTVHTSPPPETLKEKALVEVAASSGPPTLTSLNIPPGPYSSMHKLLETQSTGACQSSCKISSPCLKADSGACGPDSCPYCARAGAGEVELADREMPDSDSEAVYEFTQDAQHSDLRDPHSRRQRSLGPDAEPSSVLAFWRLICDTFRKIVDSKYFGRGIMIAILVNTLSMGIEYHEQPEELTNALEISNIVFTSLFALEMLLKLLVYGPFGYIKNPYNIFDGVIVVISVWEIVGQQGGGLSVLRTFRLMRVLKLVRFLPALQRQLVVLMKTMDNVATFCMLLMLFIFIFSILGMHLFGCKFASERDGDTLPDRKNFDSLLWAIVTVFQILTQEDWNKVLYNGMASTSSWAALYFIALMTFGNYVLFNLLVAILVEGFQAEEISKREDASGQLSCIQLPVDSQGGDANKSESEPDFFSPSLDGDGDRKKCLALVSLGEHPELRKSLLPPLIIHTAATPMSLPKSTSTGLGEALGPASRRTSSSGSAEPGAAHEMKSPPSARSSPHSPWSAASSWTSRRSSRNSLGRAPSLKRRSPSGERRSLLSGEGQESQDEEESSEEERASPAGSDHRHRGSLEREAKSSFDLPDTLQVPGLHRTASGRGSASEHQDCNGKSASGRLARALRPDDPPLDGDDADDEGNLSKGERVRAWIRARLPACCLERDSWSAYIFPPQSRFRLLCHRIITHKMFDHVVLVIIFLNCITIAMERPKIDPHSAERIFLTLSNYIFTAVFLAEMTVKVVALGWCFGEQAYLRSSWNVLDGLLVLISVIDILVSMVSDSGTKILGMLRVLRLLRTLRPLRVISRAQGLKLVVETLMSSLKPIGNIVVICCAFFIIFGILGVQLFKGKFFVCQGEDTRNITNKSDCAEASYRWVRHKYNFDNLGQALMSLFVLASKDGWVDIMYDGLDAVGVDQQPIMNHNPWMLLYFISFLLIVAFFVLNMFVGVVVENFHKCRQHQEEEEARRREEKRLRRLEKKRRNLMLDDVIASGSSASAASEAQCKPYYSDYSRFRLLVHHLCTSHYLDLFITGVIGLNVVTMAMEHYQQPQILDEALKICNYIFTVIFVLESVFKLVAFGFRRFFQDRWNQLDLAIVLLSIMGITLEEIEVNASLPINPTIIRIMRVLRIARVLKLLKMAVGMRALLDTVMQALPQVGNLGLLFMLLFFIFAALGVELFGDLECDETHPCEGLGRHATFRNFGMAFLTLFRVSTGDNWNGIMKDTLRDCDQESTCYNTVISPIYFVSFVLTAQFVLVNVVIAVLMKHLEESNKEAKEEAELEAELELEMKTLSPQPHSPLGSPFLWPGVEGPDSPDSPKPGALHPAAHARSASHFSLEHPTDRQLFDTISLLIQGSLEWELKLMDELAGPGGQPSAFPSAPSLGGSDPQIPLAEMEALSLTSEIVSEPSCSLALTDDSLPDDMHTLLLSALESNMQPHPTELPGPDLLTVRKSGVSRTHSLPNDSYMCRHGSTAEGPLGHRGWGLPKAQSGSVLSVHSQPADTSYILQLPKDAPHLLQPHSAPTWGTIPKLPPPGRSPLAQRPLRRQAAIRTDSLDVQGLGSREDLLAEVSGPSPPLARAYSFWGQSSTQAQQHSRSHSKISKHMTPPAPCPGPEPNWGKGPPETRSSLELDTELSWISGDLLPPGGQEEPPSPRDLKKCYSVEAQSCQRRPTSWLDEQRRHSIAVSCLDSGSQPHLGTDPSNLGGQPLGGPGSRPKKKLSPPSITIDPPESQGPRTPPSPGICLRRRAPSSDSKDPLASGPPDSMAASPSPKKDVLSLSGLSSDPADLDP
Experimental: In the present invention, in order to examine an efficient inhibitor against the T-type calcium channel, a primary assay for T-type calcium channel inhibiting activity was conducted by a high-efficient assay using FDSS6000, wherein mammal HEK293 cell lines (originated from human kidney carcinoma cells) that specifically express α1G of the T-type calcium channel was used for primary assay. Through the primary assay, compounds that show meaningful inhibition effects were selected. The selected compounds were used in a second assay for T-type calcium channel inhibiting activity using an electrophysiological whole cell patch clamp method, wherein mammal HEK293 cell lines (originated from human kidney carcinoma cells) that specifically express α1G of the T-type calcium channel was used for the second assay. Mibefradil, which had been developed as a T-type calcium channel inhibitor, was used as a reference.
At 12-24 hours before being used for this assay, cells of HEK293 cell line (α1G cell line: KCTC 10519BP, Korean Collection for Type Cultures), which stably express α1G T-type calcium channel and Kir2.1, were sub-cultured in a poly-L-lysine treated 96-well plate with the density of 4×10^4 per well using a 96-well cell dispenser (Titertek). On the day of assay, the 96-well plate to which the cells were attached was washed three times with HEPES buffer solution (150 mM of NaCl, 5 mM of KCl, 1 mM of MgCl2, 2 mM of CaCl2, 10 mM of HEPES, 10 mM of glucose; pH 7.4) using a 96-well plate automatic washing device (Bio Tek), then reacted with HEPES buffer solution containing 5 μM fluo-3/AM and 0.001% Pluronic F-127 at room temperature for 1 hour, to label with fluorescent dye, and then further washed two times with HEPES buffer solution.
Thereafter, at 10 minutes before the measurement using device FDSS6000, washing with HEPES buffer solution containing 10 mM CaCl2 was conducted once more, and the final volume was adjusted to 81 μl. Besides the above 96-well plate containing the cells, two additional drug 96-well plates were provided, wherein the 96-well plates contained an inhibiting drug and KCl (final concentration: 75 mM) for activating the T-type calcium channel, respectively. Since most of cell-based HTS devices are equipped with a liquid application system for injection of drug, but have no liquid sucking system, the inhibiting drug to be tested and KCl were respectively provided at a five-times higher concentration in 10 mM CaCl2 HEPES buffer solution at the amount of 27 μl, diluted by five-times at the final cell plate volume of 135 μl, and then used in this test. The concrete method of measurement using FDSS6000 was as follows. After recording the reference value of 20 seconds, the change of intracellular Ca^2+ concentration that was induced by treatment of the inhibiting drug to be tested for 75 seconds followed by administration of KCl was measured, wherein the percentage (%) inhibition effect of the test drug, through estimating the area of ratio value of 340/380 in the control without treatment of the test drug, was 100%. As a reference drug, 10 μM mibefradil was used.
For accurate calcium imaging, the light source of 4 xenon lamps in FDSS6000 were radiated to selectively expose the cells to the excitation wavelength (340 nm and 380 nm) by a computer-controlled filter wheel. Data was obtained at intervals of 1.23 seconds. The emitter fluorescence light inflowed through a long-pass filter was obtained as an average 340/380 ratio value for each well in the 96-wells by using a CCD camera and a digital fluorescence analyzer in FDSS6000. All image data and analyses were obtained by using a FDSS6000-exclusive program from Hamamatsu Photonics.
The obtained results are shown in Table 2 (the results from the compounds according to the examples of the present invention) and Table 3 (the results from the compounds according to the comparative example where R6 is a phenyl group) [FDSS (% inhibition) 10 μM].

[2] = HEK293, 10 μM, HEK293 cells stably expressing α1G T-type calcium channel and Kir2.1, compounds of the examples, read-out: FDSS (% inhibition)/10uM
[3] = 10 μM, FDSS (% inhibition), comparative compounds where R6 is a phenyl group, read-out: FDSS

SMILES	inhibition at 10 µM [1, 2] [%]	melting point [°C]	inhibition at 10 µM [1, 3] [%]	FDSS (% inhibition)/10uM ([1]; 10 μM, HEK293 cells stably expressing α1G T-type calcium channel and Kir2.1, compounds of the examples) [%]
CCCCN1C(=NC2CCCCC2)SCC1CC(=O)Nc1ccc(Cl)cc1.Cl (centres unmarked) [KHG24262, [2-cyclohexylimino-3-(n-butyl)-1,3-thiazolidine-4-yl]-N-(4-chlorophenyl)-acetamide hydrochloride]	53	194.3		
CC1SC(=NC2CCCCCC2)N(C)C1CC(=O)Nc1ccccc1.Cl (centres unmarked) [KHG24638, (2-cycloheptylimino-3,5-dimethyl-1,3-thiazolidine-4-yl)-N-phenyl-acetamide hydrochloride]	40.8	236 to 238		
CN1C(=Nc2cccc([N+](=O)[O-])c2)SCC1CC(=O)Nc1ccc(Cl)cc1.Cl (centres unmarked) [KHG21655, [2-(3-nitrophenylimino)-3-methyl-1,3-thiazolidine-4-yl]-N-(4-chlorophenyl)-acetamide hydrochloride]		228	4.68	
CN1C(=NC2CCCCCC2)SCC1C(=O)NCc1cccc(F)c1 (centres unmarked) [KHG24667, (2-cycloheptylimino-3-methyl-1,3-thiazolidine-4-yl)-N-(3-fluorobenzyl)-carboxamide]		140.1		45.99
Cl.O=C(CC1CSC(=NC2CCCCC2)N1Cc1ccccc1)Nc1cc(Cl)ccc1F (centres unmarked) [KHG24408, (2-cyclohexylimino-3-benzyl-1,3-thiazolidine-4-yl)-N-(5-chloro-2-fluorophenyl)-acetamide hydrochloride]	32.6	194.8		
CC(C)Oc1cccc(N=C2SCC(CC(=O)Nc3ccc(Cl)cc3)N2C)c1.Cl (centres unmarked) [KHG21653, [2-(3-isopropoxyphenylimino)-3-methyl-1,3-thiazolidine-4-yl]-N-(4-chlorophenyl)-acetamide hydrochloride]		201 to 203	-2.17	
CC1SC(=NC2CCCCCC2)N(C)C1CC(=O)Nc1cc([N+](=O)[O-])ccc1F.Cl (centres unmarked) [KHG24645, (2-cycloheptylimino-3,5-dimethyl-1,3-thiazolidine-4-yl)-N-(2-fluoro-5-nitrophenyl)-acetamide hydrochloride]	48.4	248 to 251		

Next, values leading:

inhibition at 10 µM [1, 2] [%]	melting point [°C]	inhibition at 10 µM [1, 3] [%]	FDSS (% inhibition)/10uM ([1]; 10 μM, HEK293 cells stably expressing α1G T-type calcium channel and Kir2.1, compounds of the examples) [%]	SMILES
33.9	227.5 to 228.5			CCCCc1ccc(NC(=O)CC2CSC(=NC3CC3)N2C)cc1.Cl (centres unmarked) [KHG24152, (2-cyclopropylimino-3-methyl-1,3-thiazolidine-4-yl)-N-(4-n-butylphenyl)-acetamide hydrochloride]
63.8	261			Cl.O=C(CC1CSC(=NC23CC4CC(CC(C4)C2)C3)N1C1CC1)Nc1ccc(Cl)cc1F (centres unmarked) [KHG24801, [2-(1-adamantylimino)-3-cyclopropyl-1,3-thiazolidine-4-yl]-N-(4-chloro-2-fluorophenyl)-acetamide hydrochloride]
65.7	228			CC(C)N1C(=NC23CC4CC(CC(C4)C2)C3)SCC1CC(=O)Nc1ccc(Cl)cc1F.Cl (centres unmarked) [KHG24834, [2-(1-adamantylimino)-3-isopropyl-1,3-thiazolidine-4-yl]-N-(4-chloro-2-fluorophenyl)-acetamide hydrochloride]
56.9	234 to 236			Cc1ccc(NC(=O)CC2CSC(=NC34CC5CC(CC(C5)C3)C4)N2C)c(Cl)c1.Cl (centres unmarked) [KHG24418, [2-(1-adamantyl)imino-3-methyl-1,3-thiazolidine-4-yl]-N-(2-chloro-4-methylphenyl)-acetamide hydrochloride]
33.7	244			CCCCN1C(=NC23CC4CC(CC(C4)C2)C3)SCC1CC(=O)Nc1ccc(C(C)C)cc1.Cl (centres unmarked) [KHG24795, [2-(1-adamantylimino)-3-(n-butyl)-1,3-thiazolidine-4-yl]-N-(4-isopropylphenyl)-acetamide hydrochloride]
60.8	231 to 232.5			CN1C(=NC2CCCC2)SCC1CC(=O)Nc1cc(Cl)cc(Cl)c1.Cl (centres unmarked) [KHG24100, (2-cyclopentylimino-3-methyl-1,3-thiazolidine-4-yl)-N-(3,5-dichlorophenyl)-acetamide hydrochloride]
